Assays:
B. subtilis 168 [1] = experiment: Bliss interaction score (quartile over a dose matrix) (fitness difference); higher = more antagonism (negative = synergy)
In short: (§1)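 Fitness here means normalised growth, inferred for single drugs from the combination data. Growth was OD595 at entry into stationary phase, divided by the plate's robust no-drug mean and capped at 1. The Bliss score is observed minus expected fitness, with the expectation being the product, and its quartiles span technical, biological and donor/recipient replicates.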

S. aureus DSM 20231 = experiment: as above
In short: as §1

S. aureus Newman = experiment: as above
In short: as §1

S. pneumoniae D39V [2] = experiment: as above
In short: as §1

B. subtilis 168 [3] = experiment: fitness (endpoint OD595 vs no drug) (fraction); higher = more growth
In short: (§2)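 Fitness was defined as the optical density at the transition into stationary phase relative to the robust mean of no-drug control wells. Values were capped at 1. Cultures were started at OD595 0.01 in 384-well plates (30 µl, or 55 µl for S. pneumoniae) in TSB, LB Lennox or CY at 37 °C. OD595 was recorded every 30 min over 14 h, with the first reading subtracted as background.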

S. pneumoniae D39V [4] = experiment: as above
In short: as §2
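For Bliss interaction score (quartile over a dose matrix) in this document: first quartile when negative (synergy) and third quartile when positive (antagonism).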

C[C@@H]1O[C@@H]1P(=O)(O)O [Fosfomycin] + C[C@H]1COc2c(N3CCN(C)CC3)c(F)cc3c(=O)c(C(=O)O)cn1c23 [Levofloxacin]
Settings | Bliss interaction score
B. subtilis 168 [1] | -0.0453
S. aureus DSM 20231 | 0.0688
S. aureus Newman | 0.0484
S. pneumoniae D39V [2] | 0.0613

fitness, B. subtilis 168 [3], one replicate
Settings | first compound 1.562 µg/mL | first compound 3.124 µg/mL | first compound 6.248 µg/mL
partner 0.001 µg/mL | 0.864 | 0.738 | 0.599
partner 0.0078 µg/mL | 0.75 | 0.643 | 0.492

Settings | fitness
B. subtilis 168 [3], first compound 1.562 µg/mL, partner 0.002 µg/mL | 0.717
B. subtilis 168 [3], first compound 1.562 µg/mL, partner 0.0039 µg/mL | 0.724
B. subtilis 168 [3], first compound 1.562 µg/mL, partner 0.0312 µg/mL | 0.0432
B. subtilis 168 [3], first compound 1.562 µg/mL, partner 0.0625 µg/mL | 0.0523
B. subtilis 168 [3], first compound 1.562 µg/mL, partner 0.125 µg/mL | 0.0479
B. subtilis 168 [3], first compound 3.124 µg/mL, partner 0.002 µg/mL | 0.629
B. subtilis 168 [3], first compound 3.124 µg/mL, partner 0.0039 µg/mL | 0.617
B. subtilis 168 [3], first compound 3.124 µg/mL, partner 0.0312 µg/mL | 0.0352
B. subtilis 168 [3], first compound 3.124 µg/mL, partner 0.0625 µg/mL | 0.0394
B. subtilis 168 [3], first compound 3.124 µg/mL, partner 0.125 µg/mL | 0.0439
B. subtilis 168 [3], first compound 6.248 µg/mL, partner 0.002 µg/mL | 0.525
B. subtilis 168 [3], first compound 6.248 µg/mL, partner 0.0039 µg/mL | 0.516
B. subtilis 168 [3], first compound 6.248 µg/mL, partner 0.0312 µg/mL | 0.0328
B. subtilis 168 [3], first compound 6.248 µg/mL, partner 0.0625 µg/mL | 0.0306
B. subtilis 168 [3], first compound 6.248 µg/mL, partner 0.125 µg/mL | 0.023
S. pneumoniae D39V [4], first compound 1.25 µg/mL, partner 0.1725 µg/mL | 0.953
S. pneumoniae D39V [4], first compound 1.25 µg/mL, partner 0.2 µg/mL | 0.936
S. pneumoniae D39V [4], first compound 1.25 µg/mL, partner 0.345 µg/mL | 0.86
S. pneumoniae D39V [4], first compound 1.25 µg/mL, partner 0.4 µg/mL | 0.857
S. pneumoniae D39V [4], first compound 1.25 µg/mL, partner 0.69 µg/mL | 0.633
S. pneumoniae D39V [4], first compound 2.5 µg/mL, partner 0.1725 µg/mL | 0.88
S. pneumoniae D39V [4], first compound 2.5 µg/mL, partner 0.2 µg/mL | 0.892
S. pneumoniae D39V [4], first compound 2.5 µg/mL, partner 0.345 µg/mL | 0.735
S. pneumoniae D39V [4], first compound 2.5 µg/mL, partner 0.4 µg/mL | 0.823
S. pneumoniae D39V [4], first compound 2.5 µg/mL, partner 0.69 µg/mL | 0.574
S. pneumoniae D39V [4], first compound 5 µg/mL, partner 0.1725 µg/mL | 0.821
S. pneumoniae D39V [4], first compound 5 µg/mL, partner 0.2 µg/mL | 0.794
S. pneumoniae D39V [4], first compound 5 µg/mL, partner 0.345 µg/mL | 0.728
S. pneumoniae D39V [4], first compound 5 µg/mL, partner 0.4 µg/mL | 0.697
S. pneumoniae D39V [4], first compound 5 µg/mL, partner 0.69 µg/mL | 0.536
S. pneumoniae D39V [4], first compound 5 µg/mL, partner 0.8 µg/mL | 0.341

C[C@H]1c2cccc(O)c2C(=O)C2=C(O)[C@]3(O)C(=O)C(C(N)=O)=C(O)[C@@H](N(C)C)[C@@H]3[C@@H](O)[C@@H]21 [Doxycycline] + C[C@@H]1O[C@@H]1P(=O)(O)O [Fosfomycin]
Settings | Bliss interaction score
B. subtilis 168 [1] | 0.131
S. aureus DSM 20231 | -0.153
S. aureus Newman | -0.113
S. pneumoniae D39V [2] | -0.096

fitness
Settings | partner 1.25 µg/mL | partner 1.562 µg/mL | partner 2.5 µg/mL | partner 3.124 µg/mL | partner 5 µg/mL | partner 6.248 µg/mL
B. subtilis 168 [3], first compound 0.02 µg/mL | – | 0.752 | – | 0.645 | – | 0.556
B. subtilis 168 [3], first compound 0.04 µg/mL | – | 0.699 | – | 0.56 | – | 0.419
B. subtilis 168 [3], first compound 0.08 µg/mL | – | 0.5 | – | 0.364 | – | 0.253
S. pneumoniae D39V [4], first compound 0.0155 µg/mL | 0.894 | – | 0.862 | – | 0.791 | –
S. pneumoniae D39V [4], first compound 0.031 µg/mL | 0.799 | – | 0.804 | – | 0.742 | –

fitness, S. pneumoniae D39V [4], one replicate
Settings | partner 1.25 µg/mL | partner 2.5 µg/mL | partner 5 µg/mL
first compound 0.003875 µg/mL | 0.969 | 0.883 | 0.753
first compound 0.00775 µg/mL | 0.97 | 0.915 | 0.814

O=C(O)c1cn(C2CC2)c2cc(N3CCNCC3)c(F)cc2c1=O [Ciprofloxacin] + C[C@H]1COc2c(N3CCN(C)CC3)c(F)cc3c(=O)c(C(=O)O)cn1c23 [Levofloxacin]
Settings | Bliss interaction score
B. subtilis 168 [1] | -0.0411
S. aureus DSM 20231 | -0.147
S. aureus Newman | -0.194
S. pneumoniae D39V [2] | -0.166

one replicate
Settings | fitness
B. subtilis 168 [3], first compound 0.0098 µg/mL, partner 0.001 µg/mL | 0.863
B. subtilis 168 [3], first compound 0.0098 µg/mL, partner 0.0078 µg/mL | 0.934
B. subtilis 168 [3], first compound 0.0195 µg/mL, partner 0.001 µg/mL | 0.829
B. subtilis 168 [3], first compound 0.0195 µg/mL, partner 0.0078 µg/mL | 0.683
B. subtilis 168 [3], first compound 0.039 µg/mL, partner 0.001 µg/mL | 0.291
B. subtilis 168 [3], first compound 0.039 µg/mL, partner 0.0078 µg/mL | 0.0887
S. pneumoniae D39V [4], first compound 0.25 µg/mL, partner 0.2 µg/mL | 0.752
S. pneumoniae D39V [4], first compound 0.25 µg/mL, partner 0.4 µg/mL | 0.559
S. pneumoniae D39V [4], first compound 0.25 µg/mL, partner 0.8 µg/mL | 0.124

Settings | fitness
B. subtilis 168 [3], first compound 0.0098 µg/mL, partner 0.002 µg/mL | 0.855
B. subtilis 168 [3], first compound 0.0098 µg/mL, partner 0.0039 µg/mL | 0.873
B. subtilis 168 [3], first compound 0.0098 µg/mL, partner 0.0312 µg/mL | 0.0377
B. subtilis 168 [3], first compound 0.0098 µg/mL, partner 0.0625 µg/mL | 0.0424
B. subtilis 168 [3], first compound 0.0098 µg/mL, partner 0.125 µg/mL | 0.0385
B. subtilis 168 [3], first compound 0.0195 µg/mL, partner 0.002 µg/mL | 0.727
B. subtilis 168 [3], first compound 0.0195 µg/mL, partner 0.0039 µg/mL | 0.722
B. subtilis 168 [3], first compound 0.0195 µg/mL, partner 0.0312 µg/mL | 0.0376
B. subtilis 168 [3], first compound 0.0195 µg/mL, partner 0.0625 µg/mL | 0.0489
B. subtilis 168 [3], first compound 0.0195 µg/mL, partner 0.125 µg/mL | 0.0429
B. subtilis 168 [3], first compound 0.039 µg/mL, partner 0.002 µg/mL | 0.123
B. subtilis 168 [3], first compound 0.039 µg/mL, partner 0.0039 µg/mL | 0.145
B. subtilis 168 [3], first compound 0.039 µg/mL, partner 0.0312 µg/mL | 0.0451
B. subtilis 168 [3], first compound 0.039 µg/mL, partner 0.0625 µg/mL | 0.0495
B. subtilis 168 [3], first compound 0.039 µg/mL, partner 0.125 µg/mL | 0.0401
S. pneumoniae D39V [4], first compound 0.125 µg/mL, partner 0.1725 µg/mL | 0.884
S. pneumoniae D39V [4], first compound 0.125 µg/mL, partner 0.2 µg/mL | 0.883
S. pneumoniae D39V [4], first compound 0.125 µg/mL, partner 0.345 µg/mL | 0.794
S. pneumoniae D39V [4], first compound 0.125 µg/mL, partner 0.4 µg/mL | 0.735
S. pneumoniae D39V [4], first compound 0.125 µg/mL, partner 0.69 µg/mL | 0.498
S. pneumoniae D39V [4], first compound 0.125 µg/mL, partner 0.8 µg/mL | 0.201
S. pneumoniae D39V [4], first compound 0.25 µg/mL, partner 0.1725 µg/mL | 0.83
S. pneumoniae D39V [4], first compound 0.25 µg/mL, partner 0.345 µg/mL | 0.723
S. pneumoniae D39V [4], first compound 0.25 µg/mL, partner 0.69 µg/mL | 0.445
S. pneumoniae D39V [4], first compound 0.5 µg/mL, partner 0.1725 µg/mL | 0.592
S. pneumoniae D39V [4], first compound 0.5 µg/mL, partner 0.345 µg/mL | 0.462
S. pneumoniae D39V [4], first compound 0.5 µg/mL, partner 0.69 µg/mL | 0.282
S. pneumoniae D39V [4], first compound 0.5 µg/mL, partner 0.8 µg/mL | 0.145
